Literature values as cited in paper PMC12505607 (BMC Medicine, 2025).
Read-outs that look alike come from different tables or passages of the source.

How the values were obtained:
[1] = test system: patients
[2] = test system: MATE2-K
[3] = test system: OCT2
[4] = test system: MATE1

Row | recommended dose for combination with endocrine therapy ([1]; in vivo) [mg BID] | patients with grade 3 fatigue as DLTs ([1]; phase 1 dose-escalation study) [patients] | SMILES | incidence of grades 3–4 neutropenia ([1]; phase 1 study) [%] | MATE2-K inhibition [2] | OCT2 inhibition [3] | MATE1 inhibition [4] | incidence of grades 3–4 neutropenia ([1]; in vivo) [%]
1 | 150 | 4 | CCN1CCN(Cc2ccc(Nc3ncc(F)c(-c4cc(F)c5nc(C)n(C(C)C)c5c4)n3)nc2)CC1 [abemaciclib] | 32.0 | inhibition | inhibition | inhibition | –
2 | – | – | CC(=O)c1c(C)c2cnc(Nc3ccc(N4CCNCC4)cn3)nc2n(C2CCCC2)c1=O [palbociclib] | – | – | – | – | 33.0
3 | – | – | CN(C)C(=O)c1cc2cnc(Nc3ccc(N4CCNCC4)cn3)nc2n1C1CCCC1 [ribociclib] | 27.0 | – | – | – | –
